US6630464B1, “Cyclin dependent kinase (CDK)4 inhibitors and their use for treating cancer” (The United States of America as represented by the …, priority 1997, dated 2003)
Where two headings read alike, the source gives them in different places.

Tests used:
CDK4:cyclin D1 = CDK4:cyclin D1 (Homo sapiens, UniProt P11802); test: In vitro kinase assay, CDK4:cyclin D1, GST-Rb substrate; settings: for CDK4 kinase inhibitory potency compared with parent compounds: parents 3-ATA and Compound 6
Method: In vitro kinase assay. Seventy-two hours after infection of 1×10^7 Sf9 cells with baculovirus containing a human CDK gene and/or a cyclin gene, cells were lysed in 250 μl of lysis buffer [50 mM HEPES (pH 7.5), 10 mM MgCl2, 1 mM DTT, 5 ig/ml of aprotinin, 5 μg/ml of leupeptin, 0.1 mM NaF, 0.2 mM phenylmethylsulfonyl fluoride (PMSF), and 0.1 mM sodium orthovanadate], centrifuged, and lysates stored at −70° C. Five microliters of CDK:cyclin lysate were mixed with test compounds in 40 μl of kinase buffer (200 mM Tris-HCl, pH 8.0, 100 mM MgCl2, 10 mM EGTA) and incubated at 30° C. for 30 min. About 400 ng of purified GST-Rb fusion protein and 5 μCi of γ-[^32P]ATP were added to the mixture and incubated at 30° C. for 15 min. Reactions were stopped by the addition of 250 μl of IP buffer (50 mM Tris-HCl, pH 8.0; 150 mM NaCl, 0.5% NP-40) and 15 μl glutathione sepharose. After one hour incubation at 4° C., sepharose beads were washed four times with IP buffer, mixed with 18 μl of 2×sample buffer and electrophoresed on an 8% Tris-glycine gel (Novex, San Diego, Calif.) at 125 V for 90 min. Equal recovery of GST-Rb fusion protein was confirmed by Coomassie blue staining prior to autoradiography.
These compounds were assessed for CDK4:cylin D kinase inhibitory activity using baculovirus-expressed human CDK4 and cyclin D1, and a GST-Rb fusion protein as substrate.
CDC2:cyclin A = biological target: T1, CDC2:cyclin A (Homo sapiens, UniProt P06493); test: In vitro kinase assay, CDC2:cyclin A; format: biochemical; settings: for Ratio CDC2A:CDK4: (IC50 CDC2)/(IC50 CDK4)
T1 construct: made in house; host or cells: Sf9 insect cells, baculovirus; unpurified lysate
Text: (§1) Characterization of 3-ATA. To examine the specificity of 3-ATA inhibitory activity for CDK4:cyclin D1 kinase, we performed in vitro kinase assays using baculovirus-expressed human CDC2:cyclin A, CDK2:cyclin A, and CDK2:cyclin E complexes.

CDK4 = biological target: T2, CDK4 (Homo sapiens, UniProt P11802); test: CDK4 binding assay (GST-p16 binding to CDK4)
T2 construct: made in house; host or cells: CDK4 and cyclin D1: Sf9 cells, baculovirus, [35S]methionine-labelled cleared lysate; GST-p16: E. coli DH5α
T2 sequence (P11802 whole entry): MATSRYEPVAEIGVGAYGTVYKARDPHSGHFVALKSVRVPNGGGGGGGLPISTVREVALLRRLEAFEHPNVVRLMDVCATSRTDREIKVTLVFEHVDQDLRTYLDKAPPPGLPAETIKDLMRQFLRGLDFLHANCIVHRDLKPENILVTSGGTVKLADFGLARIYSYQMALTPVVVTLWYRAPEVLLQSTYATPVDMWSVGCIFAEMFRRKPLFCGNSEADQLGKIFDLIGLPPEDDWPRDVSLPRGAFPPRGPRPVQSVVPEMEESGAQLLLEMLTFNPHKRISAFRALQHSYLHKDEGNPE
Method: CDK4 binding assay. Sf9 cells (1×10^7) were co-infected with baculovirus containing a cloned human CDK4 gene and/or a cyclin D1 gene in 12.5 ml of Grace's insect medium (Paragon, Baltimore, Md.) containing 10% FBS. After 40 h, cells were washed and placed in 5 ml of methionine-free medium containing 200 μCi/ml of [^35S]methionine (1000 Ci/mmole) for 4 h, followed by lysis in 250 μl. Cleared cell lysate (10 μl) was incubated with 400 ng of wildtype or mutant GST-p16 fusion proteins using the same conditions as the in vitro kinase assay. […] The gel was stained using Coomassie blue, dried, and autoradiography was performed. […] To test the effect of compounds on p16 binding to CDK4, 100 μM of each compound was incubated with CDK4:cyclin D1 lysate for 30 min prior to adding GST-p16 fusion protein.

CDK2:cyclin E = biological target: T3, CDK2:cyclin E (Homo sapiens, UniProt P24941); test: In vitro kinase assay, CDK2:cyclin E; format: biochemical; settings: for Ratio CDK2/E:CDK4: IC50 ratio, CDK4 as denominator
T3 construct: made in house; host or cells: Sf9 insect cells, baculovirus; unpurified lysate
Text: as §1

CDK2:cyclin A = biological target: T4, CDK2:cyclin A (Homo sapiens, UniProt P24941); test: In vitro kinase assay, CDK2:cyclin A; format: biochemical; settings: for Ratio CDK2/A:CDK4: IC50 ratio, CDK4 as denominator
T4 construct: made in house; host or cells: Sf9 insect cells, baculovirus; unpurified lysate
Text: as §1

CDK4:cyclin D1, sequence (P11802 whole entry): as above
CDK4:cyclin D1, sequence (P24385 whole entry partner): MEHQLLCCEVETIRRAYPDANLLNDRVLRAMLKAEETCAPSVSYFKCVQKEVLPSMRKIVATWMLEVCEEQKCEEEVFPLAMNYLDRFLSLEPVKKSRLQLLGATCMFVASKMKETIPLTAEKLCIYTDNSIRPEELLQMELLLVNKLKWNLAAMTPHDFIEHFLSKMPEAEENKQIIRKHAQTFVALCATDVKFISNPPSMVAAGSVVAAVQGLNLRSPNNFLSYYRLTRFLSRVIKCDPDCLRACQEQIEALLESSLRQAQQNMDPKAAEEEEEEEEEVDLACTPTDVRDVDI

| SMILES | IC50 (CDC2:cyclin A) [µM] | IC50 (CDK2:cyclin E) [µM] | Ratio CDK2/E:CDK4 (CDK2:cyclin E) | IC50 (CDK2:cyclin A) [µM] | Ratio CDK2/A:CDK4 (CDK2:cyclin A) | IC50 (CDK4:cyclin D1) [µM] | other results |
| --- | --- | --- | --- | --- | --- | --- | --- |
| CCC/C=C/C=C/C(=O)O[C@H]1/C(=C/C(=O)OC)C[C@H]2C[C@H]([C@@H](C)O)OC(=O)C[C@H](O)C[C@@H]3C[C@H](OC(C)=O)C(C)(C)[C@](O)(C[C@@H]4C/C(=C/C(=O)OC)C[C@H](/C=C/C(C)(C)[C@]1(O)O2)O4)O3 [Bryostatin 1, reference compound] |  |  |  |  |  |  | Inhibition of GST-Rb phosphorylation by CDK4:cyclin D1 (CDK4:cyclin D1; concentrations up to 100 μM): no inhibitory activity |
| Nc1ccc2c(=S)c3ccccc3[nH]c2c1 [Compound 3, 3-Amino-10H-acridine-9-thione] | 60 | 80 | 11.8 | > 100 | >14.7 | 6.8 | Ratio CDC2A:CDK4 (CDC2:cyclin A): 8.8; Ratio CDC2A:CDK4 (CDC2:cyclin A; listed as 3-ATA): at least nine-fold higher; Decrease of binding of CDK4 to normal p16 (CDK4; 100 μM compound): 70%; Ratio CDK2/E:CDK4 (CDK2:cyclin E; listed as 3-ATA): at least nine-fold higher; Ratio CDK2/A:CDK4 (CDK2:cyclin A; listed as 3-ATA): at least nine-fold higher; Effect of exogenous ATP on inhibitory activity in CDK4 kinase assay (CDK4:cyclin D1; exogenous ATP 0 to 600 μM): did not alter the inhibitory activity |
| COc1ccc(OC)c2c(=S)c3ccccc3[nH]c12 [Compound 4, 1,4-Dimethoxy-10H-acridine-9-thione] | > 100 | > 100 | >45 | > 100 | >45 | 2.2 | Ratio CDC2A:CDK4 (CDC2:cyclin A): >45; CDC2 kinase inhibitory activity (CDC2:cyclin A; concentrations up to 100 μM): no CDC2 or CDK2 kinase inhibitory activity; Inhibition of p16INK4A binding to CDK4 (CDK4; 100 μM of each compound): did not inhibit; CDK2 kinase inhibitory activity (CDK2:cyclin E) (CDK2:cyclin E; concentrations up to 100 μM): no CDC2 or CDK2 kinase inhibitory activity; CDK2 kinase inhibitory activity (CDK2:cyclin A) (CDK2:cyclin A; concentrations up to 100 μM): no CDC2 or CDK2 kinase inhibitory activity; CDK4 kinase inhibitory potency compared with parent compounds (CDK4:cyclin D1): more potent CDK4 kinase inhibitors than the parent compounds |
| O=C(CNc1ccc2c(=S)c3ccccc3[nH]c2c1)Nc1ccccc1-c1ccccc1NC(=O)CNc1ccc2c(=S)c3ccccc3[nH]c2c1 [Compound 5, 2,2′-Biphenyldiamine, bis[N,N′-[3-(amidonmethylamino)-10H-acridine-9-thione]]] | 70 | > 100 | >91 | > 100 | >91 | 1.1 | CDK4 kinase inhibitory potency compared with parent compounds (CDK4:cyclin D1): more potent CDK4 kinase inhibitors than the parent compounds |
| O=S1(=O)NN=C(NCc2ccc(F)cc2)c2ccccc21 [Compound 6, 4-(4-Fluorobenzylamino)-1,2,3-benzothiadiazine-1,1-dioxide] | > 100 | > 100 |  | > 100 |  | 5 |  |
| O=S1(=O)NNC(=NCc2ccc(Cl)c(Cl)c2)c2ccccc21 [NSC 645788] |  |  |  |  |  |  | IC50 (CDK4:cyclin D1; read-out: IC50 value CDK4/D1): 17 µM |
| C[C@@H]1[C@]2(O[C@H]3C=C4[C@@H]5CC[C@H]6Cc7nc8c(nc7C[C@]6(C)[C@H]5C[C@@H](O)[C@]4(C)[C@]31O)C[C@@H]1CC[C@H]3C4=CC[C@@H]5[C@H](C)[C@@]6(OC[C@]45C(=O)C[C@@H]3[C@@]1(C)C8)OC(C)(C)C[C@H]6O)O[C@](C)(CO)C[C@H]2O [cephalostatin 1, reference compound] |  |  |  |  |  |  | IC50 (CDK4:cyclin D1; read-out: IC50 value CDK4/D1): 20 µM |
